We go through 31 molecules from patent US20200270233A1, “DHFR INHIBITORS, COMPOSITIONS, AND METHODS RELATED THERETO” (Vyera Pharmaceuticais LLC, priority 2017, published 2020).

The target of one assay is T1, hDHFR (Homo sapiens, UniProt P00374).
T1 sequence (P00374 1-187): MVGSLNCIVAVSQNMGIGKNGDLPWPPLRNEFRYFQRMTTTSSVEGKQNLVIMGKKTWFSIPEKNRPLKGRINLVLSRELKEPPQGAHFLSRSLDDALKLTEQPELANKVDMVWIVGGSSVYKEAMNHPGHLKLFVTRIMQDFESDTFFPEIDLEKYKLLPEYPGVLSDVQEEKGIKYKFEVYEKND
It counts as biochemical.

A further assay has as its target T2, T. gondii DHFR (tgDHFR) (Toxoplasma gondii, UniProt Q07422).
T2 sequence (Q07422 1-610): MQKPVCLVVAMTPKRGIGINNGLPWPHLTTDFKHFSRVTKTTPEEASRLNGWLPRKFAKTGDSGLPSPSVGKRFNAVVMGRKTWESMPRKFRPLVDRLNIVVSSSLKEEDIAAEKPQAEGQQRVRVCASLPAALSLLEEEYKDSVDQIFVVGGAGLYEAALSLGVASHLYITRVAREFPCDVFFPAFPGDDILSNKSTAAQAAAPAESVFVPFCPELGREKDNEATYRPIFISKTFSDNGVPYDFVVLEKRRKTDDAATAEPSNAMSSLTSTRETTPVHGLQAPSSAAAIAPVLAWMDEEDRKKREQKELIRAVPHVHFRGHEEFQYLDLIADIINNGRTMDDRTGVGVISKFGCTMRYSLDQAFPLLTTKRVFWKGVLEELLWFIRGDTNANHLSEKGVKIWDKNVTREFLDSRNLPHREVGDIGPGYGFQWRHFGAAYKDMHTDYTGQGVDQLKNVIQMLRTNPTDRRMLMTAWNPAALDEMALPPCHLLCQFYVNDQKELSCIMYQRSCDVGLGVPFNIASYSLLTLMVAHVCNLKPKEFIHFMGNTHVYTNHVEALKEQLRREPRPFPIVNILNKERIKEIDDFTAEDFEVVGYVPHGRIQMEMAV
As to the kind of experiment: biochemical. As to conditions: for Average DHFR selectivity (h/tg): hDHFR IC50/tgDHFR IC50.

Where [1] appears, read: Table 16, pIC50 = -log10 IC50, at least three replicates, read-out: hDHFR pIC50-DHFR primary assay (converted).
Where [2] appears, read: Table 16, pIC50 = -log10 IC50, at least three replicates, read-out: tgDHFR pIC50-DHFR primary assay (converted).
Setting [3] is: Table 18, pIC50 = -log10 IC50, at least three replicates, read-out: hDHFR pIC50-DHFR primary assay (converted).

Like-named read-outs stand apart in the source and are kept apart here.

For the molecule `Nc1ncc(N2CCN(c3cccc(-c4cnc(O)nc4)n3)CC2)c(N)n1` [Compound 181, 5-(6-(4-(2,4-diaminopyrimidin-5-yl)piperazin-1-yl)pyridin-2-yl)pyrimidin-2-ol], the figures for the IC50 on hDHFR (setting [1]) and at T. gondii DHFR (tgDHFR) (setting [2]) were 16.6 nM and 1.2 nM, respectively. Moreover, the “Average DHFR selectivity (h/tg)” value on T. gondii DHFR (tgDHFR) (Table 16) is recorded as 13.94.

For the molecule `CNc1ncc(-c2cccc(N3CCN(c4cnc(N)nc4N)CC3)c2)cn1` [Compound 97], the IC50 at hDHFR (setting [1]) was 741 nM; against T. gondii DHFR (tgDHFR), 5.62 nM.

Turning to `COc1ncc(-c2ccc(F)c(N3CCN(c4cnc(N)nc4N)CC3)c2)cn1` [Compound 164], the IC50 at hDHFR (setting [1]) is 562 nM; on T. gondii DHFR (tgDHFR) (setting [2]), 8.71 nM. For the same molecule, on T. gondii DHFR (tgDHFR) (Table 16), the “Average DHFR selectivity (h/tg)” value was found to be 65.26.

Turning to `CCc1nc(N)nc(N)c1N1CCN(c2ccccc2)CC1` [Compound 28, 6-ethyl-5-(4-phenylpiperazin-1-yl)pyrimidine-2,4-diamine], the IC50 at hDHFR (setting [1]) is 1350 nM; on T. gondii DHFR (tgDHFR) it was 5.75 nM.

In the case of `COc1ncc(-c2cc(N3CCN(c4cnc(N)nc4N)CC3)ccc2F)cn1` [Compound 160], the IC50 on hDHFR (setting [1]) is 389 nM; at T. gondii DHFR (tgDHFR) (setting [2]), 2.51 nM. In addition, the “Average DHFR selectivity (h/tg)” value on T. gondii DHFR (tgDHFR) (Table 16) amounted to 156.11.

In the case of `Cc1nc(N)nc(N)c1N1CCN(c2cccc(Cl)c2)CC1` [Compound 46, 5-(4-(3-chlorophenyl)piperazin-1-yl)-6-methylpyrimidine-2,4-diamine], the IC50 against hDHFR is 240 nM; against T. gondii DHFR (tgDHFR), 8.13 nM. In addition, the “Average DHFR selectivity (h/tg)” value on T. gondii DHFR (tgDHFR) (Table 16) came to 29.68.

In the case of `Nc1ncc(N2CCN(c3cccc(-c4cncnc4)c3)CC2)c(N)n1` [Compound 74], the IC50 on hDHFR (setting [3]) is 3090 nM.

For the molecule `CCc1nc(N)nc(N)c1N1CCN(c2ccc(C)cc2)CC1` [Compound 39, 6-ethyl-5-(4-(p-tolyl)piperazin-1-yl)pyrimidine-2,4-diamine], the IC50 is 1740 nM at hDHFR (setting [1]) and 12.3 nM against T. gondii DHFR (tgDHFR).

As for `CCCc1nc(N)nc(N)c1N1CCN(c2ccc(OC)cn2)CC1` [Compound 60, 5-(4-(5-methoxypyridin-2-yl)piperazin-1-yl)-6-propylpyrimidine-2,4-diamine], the results for the IC50 on hDHFR (setting [1]) and against T. gondii DHFR (tgDHFR) were 2880 nM and 20 nM, respectively.

Regarding `Nc1ncc(N2CCN(c3cccc(-c4cnc(Cl)nc4)c3)CC2)c(N)n1` [Compound 100], the IC50 is 1320 nM on hDHFR (setting [1]), 1320 nM at hDHFR (setting [3]) and 6.76 nM at T. gondii DHFR (tgDHFR).

Turning to `CCc1nc(N)nc(N)c1N1CCN(c2ccncc2)CC1` [Compound 36, 6-ethyl-5-(4-(pyridin-4-yl)piperazin-1-yl)pyrimidine-2,4-diamine], the IC50 at hDHFR (setting [1]) was 30200 nM; against T. gondii DHFR (tgDHFR), 269 nM.

`C[C@H]1CN(c2cnc(N)nc2N)CCN1c1cccc(C2=CCOCC2)c1` [Compound 192, (S)-5-(4-(3-(3,6-dihydro-2H-pyran-4-yl)phenyI)-3-methylpiperazin-1-yl)pyrimidine-2,4-diamine]: the IC50 is 479 nM on hDHFR (setting [1]) and 27.5 nM at T. gondii DHFR (tgDHFR) (setting [2]). Moreover, the “Average DHFR selectivity (h/tg)” value at T. gondii DHFR (tgDHFR) (Table 16) worked out at 17.89.

For `Nc1ncc(N2CCN(c3cccc(Br)c3)CC2)c(N)n1` [Compound 11, 5-(4-(3-bromophenyl)piperazin-1-yl)pyrimidine-2,4-diamine], the IC50 at hDHFR (setting [1]) was 437 nM; against T. gondii DHFR (tgDHFR) it was 11.7 nM.

`Nc1ncc(N2CCN(c3cccc(N4CCOCC4)c3)CC2)c(N)n1` [Compound 25, 5-(4-(3-morpholinophenyl)piperazin-1-yl)pyrimidine-2,4-diamine]: the IC50 on hDHFR (setting [1]) is 14100 nM; against T. gondii DHFR (tgDHFR), 138 nM.

Consider `CN(C)c1ncc(-c2cccc(N3CCN(c4cnc(N)nc4N)CC3)c2)cn1` [Compound 96], for which the IC50 at hDHFR (setting [1]) was 1150 nM; at T. gondii DHFR (tgDHFR) it was 10 nM.

As to `CCc1nc(N)nc(N)c1N1CCN(c2ccc(C)cn2)CC1` [Compound 45, 6-ethyl-5-(4-(5-methylpyridin-2-yl)piperazin-1-yl)pyrimidine-2,4-diamine], the IC50 on hDHFR (setting [1]) was 794 nM; against T. gondii DHFR (tgDHFR), 5.89 nM.

Turning to `C[C@@H]1CN(c2cnc(N)nc2N)CCN1c1cccc(C2=CCOCC2)c1` [Compound 194, (R)-5-(4-(3-(3,6-dihydro-2H-pyran-4-yl)phenyl)-3-methylpiperazin-1-yl)pyrimidine-2,4-diamine], the values for the IC50 on hDHFR (setting [1]) and on T. gondii DHFR (tgDHFR) (setting [2]) were 33.1 nM and 1.82 nM, respectively. For the same molecule, at T. gondii DHFR (tgDHFR) (Table 16), the “Average DHFR selectivity (h/tg)” value is 18.10.

For the molecule `CCc1nc(N)nc(N)c1N1CCN(c2ccccn2)CC1` [Compound 34, 6-ethyl-5-(4-(pyridin-2-yl)piperazin-1-yl)pyrimidine-2,4-diamine], the values for the IC50 at hDHFR (setting [1]) and against T. gondii DHFR (tgDHFR) were 1020 nM and 6.46 nM, respectively.

Regarding `C[C@H]1CN(c2cnc(N)nc2N)CCN1c1cccc(C2CCOCC2)c1` [Compound 174], the values for the IC50 on hDHFR (setting [1]) and on T. gondii DHFR (tgDHFR) (setting [2]) were 955 nM and 31.6 nM, respectively. Also, the “Average DHFR selectivity (h/tg)” value at T. gondii DHFR (tgDHFR) (Table 16) is recorded as 30.69.

For `CCCc1nc(N)nc(N)c1N1CCN(c2ncc(C)cn2)CC1` [Compound 59, 5-(4-(5-methylpyrimidin-2-yl)piperazin-1-yl)-6-propylpyrimidine-2,4-diamine], the figures for the IC50 on hDHFR (setting [1]) and against T. gondii DHFR (tgDHFR) were 8130 nM and 70.8 nM, respectively.

On to `CCc1nc(N)nc(N)c1N1CCN(c2cccc(C)c2)CC1` [Compound 31, 6-ethyl-5-(4-(m-tolyl)piperazin-1-yl)pyrimidine-2,4-diamine], for which the IC50 at hDHFR (setting [1]) was 417 nM; on T. gondii DHFR (tgDHFR) it was 3.47 nM.

As to `CCCc1nc(N)nc(N)c1N1CCN(c2ccccn2)CC1` [Compound 56, 6-propyl-5-(4-(pyridin-2-yl)piperazin-1-yl)pyrimidine-2,4-diamine], the IC50 at hDHFR (setting [1]) was 6760 nM; against T. gondii DHFR (tgDHFR) it was 25.7 nM.

Molecule `CCc1nc(N)nc(N)c1N1CCN(c2ccc(F)cc2)CC1` [Compound 35, 6-ethyl-5-(4-(4-fluorophenyl)piperazin-1-yl)pyrimidine-2,4-diamine] showed an IC50 against T. gondii DHFR (tgDHFR) of 6.92 nM.

For `COc1ncc(-c2ccnc(N3CCN(c4cnc(N)nc4N)CC3)c2)cn1` [Compound 165], the IC50 at hDHFR (setting [1]) is 355 nM; at T. gondii DHFR (tgDHFR) (setting [2]), 4.37 nM. The “Average DHFR selectivity (h/tg)” value at T. gondii DHFR (tgDHFR) (Table 16) is recorded as 82.03.

Turning to `COc1ncc(-c2cc(N3CCN(c4cnc(N)nc4N)CC3)ccn2)cn1` [Compound 163], the IC50 is 155 nM at hDHFR (setting [1]) and 6.76 nM on T. gondii DHFR (tgDHFR) (setting [2]). The “Average DHFR selectivity (h/tg)” value on T. gondii DHFR (tgDHFR) (Table 16) worked out at 23.00.

As to `COc1ncc(-c2cc(F)cc(N3CCN(c4cnc(N)nc4N)CC3)c2)cn1` [Compound 161], the IC50 was 138 nM at hDHFR (setting [1]) and 2.69 nM at T. gondii DHFR (tgDHFR) (setting [2]). Moreover, on T. gondii DHFR (tgDHFR) (Table 16), the “Average DHFR selectivity (h/tg)” value turned out to be 51.27.

On to `COc1ncccc1-c1cccc(N2CCN(c3cnc(N)nc3N)CC2)c1` [Compound 80], for which the IC50 at hDHFR (setting [1]) was 1020 nM; against T. gondii DHFR (tgDHFR), 6.17 nM.

In the case of `Cc1nc(N)nc(N)c1N1CCN(c2ccccc2)CC1` [Compound 47, 6-methyl-5-(4-phenylpiperazin-1-yl)pyrimidine-2,4-diamine], the figures for the IC50 at hDHFR (setting [1]) and on T. gondii DHFR (tgDHFR) were 2240 nM and 26.3 nM, respectively.

`CCCc1nc(N)nc(N)c1N1CCC(c2ccccc2)CC1` [Compound 51, 5-(4-phenylpiperidin-1-yl)-6-propylpyrimidine-2,4-diamine]: the IC50 on hDHFR (setting [1]) is 2450 nM; against T. gondii DHFR (tgDHFR), 11.7 nM.

Turning to `Nc1ncc(N2CCN(c3cccc(-c4cnc(C5CC5)nc4)c3)CC2)c(N)n1` [Compound 86], the IC50 at hDHFR (setting [3]) was 832 nM.

As for `Cc1ncc(-c2cccc(N3CCN(c4cnc(N)nc4N)CC3)c2)cn1` [Compound 69, 5-(4-(3-(2-methylpyrimidin-5-yl)phenyl)piperazin-1-yl)pyrimidine-2,4-diamine], the IC50 against T. gondii DHFR (tgDHFR) is 4.47 nM.
